Data: patent publication US4401604A, “Process for preparing thiosulfenamide derivatives of N-phosphonomethylglycine triesters” (Monsanto Company, priority 1981, dated 1983)

Columns and labels:
Experiment in all cases: Post-emergence herbicidal activity, greenhouse
Assay type in all cases: in vivo
Lambsquarters = conditions: 4 WAT
Source text: (§1) A good grade of top soil is placed in aluminum pans having holes in the bottom and compacted to a depth of 0.95 to 1.27 cm. from the top of the pan. A predetermined number of seeds of each of several dicotyledonous and monocotyledonous annual plant species and/or vegetative propagules for the perennial plant species are placed on the soil and pressed into the soil surface. The seeds and/or vegetative propagules are covered with soil and leveled. The pans are then placed on a sand bench in the greenhouse and watered from below as needed. After the plants reach the desired age (two to three weeks), each pan except for the control pans is removed individually to a spraying chamber and sprayed by means of an atomizer operating at a positive air pressure of approximately 1.46 kg/cm^2 absolute. The atomizer contains 6 ml. of a solution or suspension of the chemical. In that 6 ml., is an amount of a cyclohexanone emulsifying agent mixture to give a spray solution or suspension which contains about 0.4% by weight of the emulsifier. The spray solution or suspension contains a sufficient amount of the candidate chemical in order to give application rates corresponding to those set forth in the tables. The spray solution is prepared by taking an aliquot of a 1.0% by weight stock solution or suspension of the candidate chemical in an organic solvent such as acetone or tetrahydrofuran or in water. The emulsifying agent employed is a mixture comprising 35 weight percent butylamine dodecylbenzene sulfonate and 65 weight percent of a tall oil ethylene oxide condensate having about 11 moles of ethylene oxide per mole of tall oil. The pans are returned to the greenhouse and watered as before and the injury to the plants as compared to the control is observed at approximately two and four weeks as indicated in the tables under WAT and the results recorded. In some instances, the two-week observations are omitted.
(§2) The post-emergence herbicidal activity index used in Table I is as follows:
(§3) The plant species utilized in these tests are identified by letter in accordance with the following legend: […]

Downy Brome = conditions: 4 WAT
Source text: as §1, §2, §3

Rice = conditions: Table II, 4 WAT
Source text: as §1, §2, §3

Soybean = conditions: Table II, 4 WAT
Source text: as §1, §2, §3

Morningglory = conditions: 4 WAT
Source text: as §1, §2, §3

Smartweed = conditions: 4 WAT
Source text: as §1, §2, §3

Sorghum = conditions: Table II, 4 WAT
Source text: as §1, §2, §3

Barnyardgrass = conditions: 4 WAT
Source text: as §1, §2, §3

Velvetleaf = conditions: 4 WAT
Source text: as §1, §2, §3

Canada Thistle = conditions: Table I, 4 WAT
Source text: as §1, §2, §3

In the case of `CCCCCCCCSSN(CC(=O)OC)CP(=O)(Oc1ccccc1)Oc1ccccc1` [II, Glycine, N-[(diphenoxyphosphinyl)methyl]-N-(octyldithio)-, methyl ester], the “post-emergence herbicidal activity index” value (Lambsquarters; Table I, 5.6 kg/h) is reported as 3 (75-99% control), the “post-emergence herbicidal activity index” value (Lambsquarters; Table I, 11.2 kg/h) is reported as 4 (100% control) and the “post-emergence herbicidal activity index” value (Lambsquarters; Table II, 0.28 kg/h) is reported as 0 (0- 24% control). The “post-emergence herbicidal activity index” value (Lambsquarters; Table II, 1.12 kg/h) was 2 (50-74% control), the “post-emergence herbicidal activity index” value (Lambsquarters; Table II, 5.6 kg/h) was 3 (75-99% control) and the “post-emergence herbicidal activity index” value (Downy Brome; Table I, 5.6 kg/h) was 2 (50-74% control). The “post-emergence herbicidal activity index” value (Downy Brome; Table I, 11.2 kg/h) was 1 (25-49% control), the “post-emergence herbicidal activity index” value (Downy Brome; Table II, 0.28 kg/h) was 0 (0- 24% control) and the “post-emergence herbicidal activity index” value (Downy Brome; Table II, 1.12 kg/h) was 0 (0- 24% control). For the same compound, the “post-emergence herbicidal activity index” value (Downy Brome; Table II, 5.6 kg/h) was 2 (50-74% control), the “post-emergence herbicidal activity index” value (Rice; 0.28 kg/h) was 0 (0- 24% control) and the “post-emergence herbicidal activity index” value (Rice; 1.12 kg/h) was 1 (25-49% control). For the same compound, the “post-emergence herbicidal activity index” value (Rice; 5.6 kg/h) was 3 (75-99% control), the “post-emergence herbicidal activity index” value (Soybean; 0.28 kg/h) was 0 (0- 24% control) and the “post-emergence herbicidal activity index” value (Soybean; 1.12 kg/h) was 0 (0- 24% control). For the same compound, the “post-emergence herbicidal activity index” value (Soybean; 5.6 kg/h) was 2 (50-74% control), the “post-emergence herbicidal activity index” value (Morningglory; Table I, 5.6 kg/h) was 2 (50-74% control) and the “post-emergence herbicidal activity index” value (Morningglory; Table I, 11.2 kg/h) was 2 (50-74% control). The “post-emergence herbicidal activity index” value (Morningglory; Table II, 0.28 kg/h) was 1 (25-49% control), the “post-emergence herbicidal activity index” value (Morningglory; Table II, 1.12 kg/h) was 1 (25-49% control) and the “post-emergence herbicidal activity index” value (Morningglory; Table II, 5.6 kg/h) was 3 (75-99% control). The “post-emergence herbicidal activity index” value (Smartweed; Table I, 5.6 kg/h) was 2 (50-74% control), the “post-emergence herbicidal activity index” value (Smartweed; Table I, 11.2 kg/h) was 4 (100% control) and the “post-emergence herbicidal activity index” value (Smartweed; Table II, 0.28 kg/h) was 0 (0- 24% control). The “post-emergence herbicidal activity index” value (Smartweed; Table II, 1.12 kg/h) was 1 (25-49% control), the “post-emergence herbicidal activity index” value (Smartweed; Table II, 5.6 kg/h) was 2 (50-74% control) and the “post-emergence herbicidal activity index” value (Sorghum; 0.28 kg/h) was 0 (0- 24% control). The “post-emergence herbicidal activity index” value (Sorghum; 1.12 kg/h) was 1 (25-49% control), the “post-emergence herbicidal activity index” value (Sorghum; 5.6 kg/h) was 3 (75-99% control) and the “post-emergence herbicidal activity index” value (Barnyardgrass; Table I, 5.6 kg/h) was 2 (50-74% control). The “post-emergence herbicidal activity index” value (Barnyardgrass; Table I, 11.2 kg/h) was 2 (50-74% control), the “post-emergence herbicidal activity index” value (Barnyardgrass; Table II, 0.28 kg/h) was 0 (0- 24% control) and the “post-emergence herbicidal activity index” value (Barnyardgrass; Table II, 1.12 kg/h) was 1 (25-49% control). For the same compound, the “post-emergence herbicidal activity index” value (Barnyardgrass; Table II, 5.6 kg/h) was 3 (75-99% control), the “post-emergence herbicidal activity index” value (Velvetleaf; Table I, 5.6 kg/h) was 1 (25-49% control) and the “post-emergence herbicidal activity index” value (Velvetleaf; Table I, 11.2 kg/h) was 3 (75-99% control). The “post-emergence herbicidal activity index” value (Velvetleaf; Table II, 0.28 kg/h) was 0 (0- 24% control), the “post-emergence herbicidal activity index” value (Velvetleaf; Table II, 1.12 kg/h) was 0 (0- 24% control) and the “post-emergence herbicidal activity index” value (Velvetleaf; Table II, 5.6 kg/h) was 2 (50-74% control). The “post-emergence herbicidal activity index” value (Canada Thistle; 5.6 kg/h) was 0 (0- 24% control) and the “post-emergence herbicidal activity index” value (Canada Thistle; 11.2 kg/h) was 1 (25-49% control).
